# Patent US10799508B2, “Methods for treating cancer using HSP90 inhibitors” (AI Therapeutics, Inc., priority 2017, dated 2020)
# B1: IFN-γ: human interferon-gamma used to induce PD-L1 (protein, UniProt P01579 24-161, looked up)
# Interferon gamma: QDPYVKEAENLKKYFNAGHSDVADNGTLFLGILKNWKEESDRKIMQSQIVSFYFKLFKNFKDDQSIQKSVETIKEDMNVKFFNSNKKKRDDFEKLTNYSVTDLNVQRKAIHELIQVMAELSPAAKTGKRKRSQMLFRG
# Legend:
# [1] = test system: IFN-γ-induced PD-L1 expression in SK-MEL-28 cells; test: 10-point dose response validation of IFN-γ-induced PD-L1 signal; format: cell-based, human; conditions: 48 h; for IFN-γ-induced PD-L1 signal: SK-MEL-28, 10-point dose response 9.8-5000 nM, FIG. 1A-D; for concentration required to inhibit IFN-γ-induced PD-L1 expression compared with concentration required to affect cell proliferation: SK-MEL-28, IFN-γ 50 ng/ml, FIG. 2A-E
# Protocol: FIG. 1A-D. Validation dose response curves of HSP90 inhibitors tested in the original screen. A) CNF2024; B) PF04928473; C) tanespimycin; D) HSP-990. SK-MEL-28 cells treated with IFN-γ and with the indicated HSP90 inhibitor at different concentrations. Cells were assayed for cell viability (square, % viability on left axis) and PD-L1 expression (circle, Z-score right axis) at 48 h after treatment of IFN-γ and/or HSP90 inhibitors. Quadruplicate wells were used for determination of cell viability and PD-L1 expression. Average values were plotted. […] Lysates were probed with anti PD-L1 antibody.
# (§1) FIG. 2A-E. Dose response curves of 5 additional HSP90 inhibitors. A) STA-9090, B) CUDC-305, C) MPC-3100, D) XL-888 and E) TAS-116. SK-MEL-28 cells treated with IFN-γ (50 ng/ml) and with the indicated HSP90 inhibitor at different concentrations. Cells were assayed for cell viability (square, % viability on left axis) and PD-L1 expression (circle, Z-score right axis) at 48 h after treatment of IFN-γ and/or HSP inhibitors. Quadruplicate wells were used for determination of cell viability and PD-L1 expression. Average values were plotted.
# After assessment for viability, plates were then prepared for immunostaining. Briefly, 16% paraformaldehyde (Electron Microscopy Sciences) was added to each well to a final concentration of 4%, for 10 minutes at room temperature. Following this time, the fix was aspirated and cells were washed 3 times with PBS. Cells were blocked using blocking solution (1% bovine serum albumin in PBS) for 30 minutes. After this time, the blocking reagent was aspirated and immunostaining reagent added. The immunostaining reagent consisted of a biotin conjugated-PD-L1 antibody (eBioscience) diluted in blocking buffer. Plates were sealed and kept at 4 C overnight. The following day, plates were washed 3 times with PBS followed by addition of a streptavidin-luciferase fusion protein (Invivogen) diluted in blocking buffer, for 1 h at room temperature. After this step, the plates were washed 3 times with PBS. After the final wash, PBS was aspirated and 30 uL of QUANTI-Luc™ (Invivogen) was added per well. Plates were immediately read on a plate reader (Victor 3V plate reader, 0.1s) and luciferase activity measured.
# The raw PD-L1 intensity (the luciferase readout) corresponding to drug screen plates was normalized to blank plates containing only IFN-γ-treated wells, and the resulting ratio was used for the calculation of Z-scores.
# (§2) These 4 HSP90 inhibitors were validated using the same experimental protocol employed above (using the SK-MEL-28 cells +/−IFN-γ in 384 well plates), with the only exception to the original assay design was that each drug was now tested in a 10-point dose response assay where the concentration of drug tested was 9.8-5000 nM (2 fold serial dilution). Cells were seeded and treated in quadruplicate. Viability was assessed after 48 h of treatment of four HSP 90 inhibitors and prior to harvesting the cells for testing PD-L1 signal, as described above.
# [2] = test system: IFN-γ-induced PD-L1 expression in SK-MEL-28 cells; test: High-content primary screen for small molecules that reduce IFN-γ induced PD-L1 expression; format: cell-based, human; conditions: SK-MEL-28, IFN-γ 50 ng/ml, drugs at 40, 480 and 5000 nM, viability >75%
# Protocol: SK-MEL-28 cells (melanoma cell line; […] Cells were expanded in MEM (Corning) containing 10% FBS (Sigma) and 2 mM L-Glutamine. Frozen stocks of cells were prepared for direct use in the high-throughput screening (HTS) assay. Cells were harvested, pelleted and then resuspended in 95% FBS & 5% DMSO at a concentration 1×10^7 cells/ml. One ml aliquots were rate frozen to −80° C. at a rate of 1 degree per minute. These stocks were then transferred to vapor phase liquid nitrogen for long term storage. For screening, frozen cell vials were quickly thawed with continuous agitation in a at 37° C. water bath then re-suspended in the assay media at room temperature and centrifuged at 1,000 rpm for 5 minutes. The resulting pellet was re-suspended in appropriate volume and counted using an automated cell counter and diluted accordingly. Using a manually curated library of approximately 2500 individual drugs (2000 approved drugs, 500 unapproved drugs), drugs from the source plate were transferred to the destination plates (384-well assay plates—Corning #3712) using an ECHO 550 liquid handler (Labcyte). SK-MEL-28 cells (1750 cells per well in 30 μL of media), treated with IFN-g (50 ng/ml final) were added to these pre-formatted plates using a Multidrop™ Combi reagent dispenser (Thermofisher). […] Plates were centrifuged at 800 rpm for one minute before being incubated in a 5% CO2 humidified incubator at 37° C. After assessment for viability, plates were then prepared for immunostaining. Briefly, 16% paraformaldehyde (Electron Microscopy Sciences) was added to each well to a final concentration of 4%, for 10 minutes at room temperature. Following this time, the fix was aspirated and cells were washed 3 times with PBS. […] After this time, the blocking reagent was aspirated and immunostaining reagent added. […] Plates were sealed and kept at 4 C overnight. […] After this step, the plates were washed 3 times with PBS. After the final wash, PBS was aspirated and 30 uL of QUANTI-Luc™ (Invivogen) was added per well.
# [3] = alamarBlue cell viability; format: cell-based; conditions: human, SK-MEL-28 cells, SK-MEL-28, highest concentration tested (1000 nM), IFN-γ 50 ng/ml
# Protocol: as §1
# 44 h later, cell viability was determined using alamarBlue™ cell viability reagent (Thermofisher), according to the manufacturers protocol. Briefly, 3 μL of alamarBlue™ reagent was added to each well and plates were incubated for a further 4 h. The plates were read on a Victor ^3V plate reader (Perkin Elmer). Viability for each drug was expressed as a percentage by comparing drug-treated cells and untreated control cells (Set to 100%).
# as §2
# [4] = test system: PD-L1 cell surface expression in AML cell lines (PL-21, TUR, MOLM-14, MV-4-11); test: Flow cytometry of IFN-γ-induced PD-L1 cell surface expression in AML cells; format: cell-based, human; conditions: 24 hours
# Protocol: FIG. 13A-D: MPC-0767 blocks IFN-γ-induced PD-L1 expression in AML cells. A) PL-21, B) TUR, C) MOLM-14, D) MV-4-11 cells treated with MPC-0767 (2 μM), IFN-γ (50 ng/ml) or IFN-γ+MPC-0767 for 24 h before cells were harvested for assessment of PD-L1 cell surface expression.
# To ascertain whether MPC-0767 can block IFN-γ-induced PD-L1 expression in AML cells, four AML cell lines harboring WT FLT3 (n=2) or FLT3-ITD (n=2) were treated with human IFN-γ (50 ng/ml) alone, MPC-0767 (2 μM) alone or the combination for 24 hours. Cells were harvested to determine PD-L1 cell surface expression by flow cytometry. Cells were also stained with a viability stain to gate on viable cells and exclude any dead cells. As shown in FIG. 13A-D, all cell lines induced PD-L1 cell surface expression in response to IFN-γ treatment (6-25 fold).
# [5] = test system: MV-4-11, MOLM-16, TUR, U937, KMS-28, OCI-LY-19 and Z138 cell lines; test: Synergy of MPC-0767 and venetoclax versus basal BCL-2 abundance; format: cell-based, human; conditions: 72 hours, CellTiter-Glo
# Protocol: FIG. 12: Cell lines representing acute myeloid leukemia, multiple myeloma, diffuse large B cell lymphoma and mantle cell lymphoma were assayed for basal abundance of BCL-2 (Y axis) and a high/low threshold is shown by dashed line. Cell line sensitivity to venetoclax after 72 hour treatment as assessed by CellTiter-Glo (X axis) is denoted by EC50 values shown in parentheses. Following drug combination treatment of MPC-0767 and venetoclax, determination of synergy is shown by bar graphs in black (synergy observed) or grey (no synergy observed).
# After 72 hour treatment with the indicated drug combinations, cell viability was assessed using CellTiter-Glo. […] The absolute EC75 for each single agent and drug combination was calculated using the R package DRC (Ritz et al., Dose-Response Analysis Using R. PLoS One. 2015. 10(12):e0146021; R Core Team, A language and environment for statistical computing. R Foundation for Statistical Computing, Vienna, Austria. 2017). […]
# To test whether BCL-2 abundance is predictive of the synergy between HSP90 inhibitors and venetoclax observed here, we analyzed BCL-2 abundance in cell lines representing acute myeloid leukemia (MV-4-11, MOLM-16, TUR and U937), multiple myeloma (KMS-28), diffuse large B cell lymphoma (OCI-LY-19) and mantle cell lymphoma (Z138) under basal conditions using flow cytometry. […]
Molecule,IFN-γ-induced PD-L1 signal [1],hit in the primary screen (reduction of IFN-γ-induced PD-L1 expression) [2],"viability at 48 h, 1 µM [3]",concentration required to inhibit IFN-γ-induced PD-L1 expression compared with concentration required to affect cell proliferation [1],further results
COc1c(C)cnc(Cn2cnc3c(Cl)nc(N)nc32)c1C [CNF-2024],blocked,identified as hits,,,
CN(C)c1cc2c(cc1Sc1nc3c(N)nccc3n1CCNCC(C)(C)C)OCO2 [CUDC-305],,,> 80%,far lower,
COc1cccc(-c2cc(F)ccc2[C@H]2Cc3nc(N)nc(C)c3C(=O)N2)n1 [HSP-990],blocked,identified as hits,,,
C[C@H](N)C(=O)O[C@@H](C)C(=O)N1CCC(CCn2c(Sc3cc4c(cc3Br)OCO4)nc3c(N)ncnc32)CC1 [MPC-0767],,,,,"basal PD-L1 cell surface expression ([4]; MPC-0767 2 μM alone, four AML cell lines): did not significantly reduce; reduction of IFN-γ-induced PD-L1 cell surface expression ([4]; MPC-0767 2 μM with IFN-γ 50 ng/ml, range over four AML cell lines): 43-83%; synergy with venetoclax ([5]; cell lines with high BCL-2 levels): observed in 4 out of 4 cell lines; synergy with venetoclax ([5]; three cell lines with low BCL-2 levels): no synergy was observed"
CC1(C)CC(=O)c2c(C(F)(F)F)nn(-c3ccc(C(N)=O)c(N[C@H]4CC[C@H](O)CC4)c3)c2C1 [PF0498473],blocked,identified as hits,,,
CC(C)c1cc(-c2n[nH]c(=O)n2-c2ccc3c(ccn3C)c2)c(O)cc1O [STA-9090],,,> 80%,far lower,
CCc1cc(C(N)=O)ccc1-n1nc(C(C)C)c2c(-n3cnc(-c4cnn(C)c4)c3)ccnc21 [TAS-116],,,> 80%,far lower,
CC[C@@H](C)Nc1cc(C(=O)NC2CC3CCC(C2)N3c2ccc(C(=O)C3CC3)cn2)c(C)cc1C(N)=O (stereo partly drawn) [XL-888],,,> 80%,far lower,
C=CCNC1=C2C[C@@H](C)C[C@H](OC)[C@H](O)[C@@H](C)/C=C(\C)[C@H](OC(N)=O)[C@@H](OC)/C=C\C=C(/C)C(=O)NC(=CC1=O)C2=O [tanespimycin],blocked,identified as hits,,,
B1,,,,,"induction of PD-L1 cell surface expression ([4]; human IFN-γ 50 ng/ml alone, range over four AML cell lines): 6-25 fold"
